Laboratory results as given in ChEMBL document CHEMBL1159147, “4-(2-PYRTOYL)-5-phenylthiazoles as novel non-bicyclic reversible inhibitors of the gastric H+/K+-atpase” (Bioorg Med Chem Lett, 1995).

Legend:
[1] = molecular target: Potassium-transporting ATPase alpha chain 1 (Sus scrofa) (UniProt P19156); experiment: Ability to inhibit H+/K+ stimulated ATPase activity in lympholised gastric vesicles at 30 uM concentration; assay type: tissue-based; details: Stomach
Rattus norvegicus = experiment: Compound was tested in vivo for its ability to inhibit pentagastrin-stimulated gastric acid secretion in the anesthetized lumen perfused rat at 10 umol/kg iv; insoluble; assay type: functional, organism-based; details: Stomach
[2] = tested on: CCCc1nc(-c2cc(N)ccn2)c(-c2ccccc2C)s1; experiment: Km was determined
[3] = tested on: CCCc1nc(-c2cc(N)ccn2)c(-c2ccccc2C)s1; experiment: Vmax was determined
[4] = molecular target: Potassium-transporting ATPase alpha chain 1 (Sus scrofa) (UniProt P19156); experiment: Ability to inhibit H+/K+ stimulated ATPase activity in lympholised gastric vesicles at 100 uM concentration; assay type: tissue-based; details: Stomach

Chain of Potassium-transporting ATPase alpha chain 1 (Sus scrofa) (P19156 whole entry, the tested form may be a part): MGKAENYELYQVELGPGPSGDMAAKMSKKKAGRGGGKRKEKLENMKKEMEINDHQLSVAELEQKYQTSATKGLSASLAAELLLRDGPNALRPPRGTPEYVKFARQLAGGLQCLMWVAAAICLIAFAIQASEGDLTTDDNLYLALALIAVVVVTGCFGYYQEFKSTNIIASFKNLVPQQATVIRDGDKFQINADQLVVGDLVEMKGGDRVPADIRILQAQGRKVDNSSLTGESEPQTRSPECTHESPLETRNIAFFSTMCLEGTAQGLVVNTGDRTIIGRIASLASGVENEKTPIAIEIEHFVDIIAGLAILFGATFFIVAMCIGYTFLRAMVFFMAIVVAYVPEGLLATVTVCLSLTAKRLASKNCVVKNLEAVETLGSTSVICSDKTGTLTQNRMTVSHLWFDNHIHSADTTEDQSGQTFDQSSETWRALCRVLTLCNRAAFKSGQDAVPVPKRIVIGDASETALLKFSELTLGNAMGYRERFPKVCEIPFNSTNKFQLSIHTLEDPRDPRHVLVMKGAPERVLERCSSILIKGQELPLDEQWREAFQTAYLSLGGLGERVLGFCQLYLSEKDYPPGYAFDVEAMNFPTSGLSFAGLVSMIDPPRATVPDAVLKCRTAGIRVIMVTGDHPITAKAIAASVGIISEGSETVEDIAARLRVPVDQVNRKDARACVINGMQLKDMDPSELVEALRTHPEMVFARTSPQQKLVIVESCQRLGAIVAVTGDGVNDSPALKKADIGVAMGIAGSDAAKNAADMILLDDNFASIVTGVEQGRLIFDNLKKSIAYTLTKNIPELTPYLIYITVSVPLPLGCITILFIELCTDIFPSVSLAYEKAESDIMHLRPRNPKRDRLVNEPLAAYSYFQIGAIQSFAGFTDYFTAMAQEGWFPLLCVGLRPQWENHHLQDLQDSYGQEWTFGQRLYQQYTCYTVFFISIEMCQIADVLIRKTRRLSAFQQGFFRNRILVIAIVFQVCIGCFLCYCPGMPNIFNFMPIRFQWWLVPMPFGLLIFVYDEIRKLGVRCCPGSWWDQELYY
Chain of Potassium-transporting ATPase alpha chain 1 (Sus scrofa), P19156 (P19156 whole entry): as the sequence (P19156 whole entry, the tested form may be a part) above

Compound: CCCc1ncc(-c2ccccc2C)c(-c2ccccn2)n1
- inhibition [1]: 23%

Compound: Cc1ccccc1-c1nc(-c2ccccn2)c(-c2ccccc2C)s1
- inhibition (Rattus norvegicus): Insoluble

Compound: Potassium-transporting ATPase alpha chain 1 (Sus scrofa), P19156
- Km [2]: 560 µM
- Vmax [3]: 0.636 IU mg-1

Compound: CCCc1nc(-c2ccccc2C)c(-c2ccccn2)[nH]1
- inhibition [4]: 67%

Compound: Cc1nc(-c2ccccn2)c(-c2ccccc2C)s1
- inhibition [4]: 48%
